The values that follow come from article PMC11571015, “Hybrids of Membrane-Translocating Antimicrobial Peptides Show Enhanced Activity through Membrane Permeabilization” (ACS Medicinal Chemistry Letters, 2024).

One assay concerns E. coli. Format: cell-based, E. coli (Top10 Strain). As to conditions: median MIC; microbroth dilution, 1:2 serial dilution 18.2 to 1.8x10-2 μM, 4 × 10^6 CFU/mL, 1 h 37°C in wash buffer pH 7.4, then TSB overnight (18-24 h), OD600; triplicate per plate; mixture: each peptide at the reported concentration. How it is done: (§1) Supplemental Information for Trevellin et al.
(§2) Peptide design and preparation […]
(§3) synthesized by GenScript (Piscataway, NJ) at >95% purity determined by HPLC and dissolved in DI water. Concentrations were measured by triplicate tryptophan absorbance readings at 280 nm (ε=5700 M–1cm–1, l=1 cm) using a ThermoScientific NanoDrop 2000 (Waltham, MA). Buforin II (BF2) included an F10W mutation used in many previous studies1-5 to allow for concentration measurements.
(§4) Bacteria included E. coli (Top10 Strain, Invitrogen/ThermoFisher) containing a plasmid for ampicillin resistance (Novagen) and/or B. subtilis (ATCC #6051). Bacterial growth was performed in TSB (trypticase soy broth) prepared at 3% w/v (30 g of media in 1 L) from BD Difco unless otherwise noted. Overnight cultures were picked from petri dishes or frozen stock and grown for 14-16 hours at 37 °C in TSB with shaking. E. coli overnight cultures were incubated with 25 μg/mL ampicillin. The overnight cultures were then diluted 1:100 in 25 mL TSB and incubated at 37 °C with shaking for 2.5 h. The culture was pelleted via centrifugation at 1500×g for 10 min at room temperature and resuspended in sterile cold wash buffer (10 mM sodium phosphate buffer and 10 mM sodium chloride, pH 7.4). These resuspended bacteria were then used for radial diffusion, microbroth dilution, and propidium iodide assays. […]
(§5) Microbroth dilution assay
(§6) Microbroth dilution assays were used to determine the minimum inhibitory concentration (MIC) of each peptide for E. coli and B. subtilis (ATCC #6051). A 1:2 serial dilution was prepared for a peptide across the top row of a 96-well plate. 100 μL of bacterial suspension (4 × 10^6 CFU/mL, diluted in sterile wash buffer, 10 mM sodium phosphate buffer and 10 mM sodium chloride, pH 7.4) and 10 μL of peptide were mixed to each well in subsequent rows of the plate. The 11 effective peptide concentrations ranged from 18.2 μM to 1.8x10-2 μM, with DI water used as a control, and each concentration was tested in triplicate per plate. After the bacteria and peptide mixtures were incubated in plates at 37°C for 1 hour, 100 μL of 6% w/v TSB was added to each well. For wells containing E. coli, ampicillin was added at a final concentration of 25 µg/ml. The plate was then incubated overnight (18-24 h) at 37°C. After incubation, OD600nm were measured using the SpectraMax M3 microplate reader (Molecular Devices). […]
(§7) relative permeability = F5/F0
(§8) Each peptide was tested with bacteria grown from at least three distinct overnight […]
(§9) The MTS assay is a colorimetric viability assay for mammalian cells. HEK 293 cells (ATCC CRL-1573) were grown in complete growth medium (EMEM, 10% fetal bovine serum, 1% penicillin-streptomycin). Cells were cultured in a T-75 maintenance flask, fed with fresh media every 1-2 days, and passaged approximately every 5-7 days once cells reached 70-90% confluence. During passaging, HEK 293 cells were plated in a 96-well plate at 20,000 cells/well and incubated for 4-6 hours (37 °C, 95% humidity, 5% CO2). Each column of cells (8 replicates) was then incubated overnight with 18.2 µM peptide or a control. After incubation, media was aspirated and refreshed for each well, […]
In general terms: Dilution methods test growth across graded concentrations, often in twofold steps.

Another assay deals with B. subtilis. Format: cell-based, B. subtilis (ATCC #6051). As to conditions: 1 h, pH 7.4. Here is the method: as §1, §2, §3, §4, §5, §6, §7, §8, §9

SMILES strings stand for the structures. ≈ marks a conversion by molar mass, not a printed value.

On to `CC[C@H](C)[C@H](NC(=O)[C@H](CCCNC(=N)N)NC(=O)[C@@H](NC(=O)[C@H](CCCCN)NC(=O)[C@H](CCCCN)NC(=O)[C@H](CC(N)=O)NC(=O)[C@H](CC(=O)O)NC(=O)[C@H](CCCNC(=N)N)NC(=O)[C@H](C)N)[C@@H](C)O)C(=O)N[C@@H](Cc1c[nH]c2ccccc12)C(=O)N1CCC[C@H]1C(=O)N[C@@H](CCCNC(=N)N)C(=O)N[C@@H](Cc1c[nH]cn1)C(=O)N[C@@H](CC(C)C)C(=O)N[C@@H](CCC(N)=O)C(=O)N[C@@H](CC(C)C)C(=O)N[C@@H](C)C(=O)N[C@H](C(=O)N[C@@H](CCCNC(=N)N)C(=O)N[C@@H](CC(N)=O)C(=O)N[C@H](C(=O)N[C@@H](CCCNC(=N)N)C(=O)N[C@@H](CO)C(=O)N[C@@H](CO)C(=O)N[C@@H](CCCNC(=N)N)C(=O)N[C@@H](C)C(=O)NCC(=O)N[C@@H](CC(C)C)C(=O)N[C@@H](CCC(N)=O)C(=O)N[C@@H](Cc1c[nH]c2ccccc12)C(=O)N1CCC[C@H]1C(=O)N[C@H](C(=O)NCC(=O)N[C@@H](CCCNC(=N)N)C(=O)N[C@H](C(=O)N[C@@H](Cc1c[nH]cn1)C(=O)N[C@@H](CCCNC(=N)N)C(=O)N[C@@H](CC(C)C)C(=O)N[C@@H](CC(C)C)C(=O)N[C@@H](CCCNC(=N)N)C(=O)N[C@@H](CCCCN)C(=O)O)C(C)C)C(C)C)[C@@H](C)O)C(C)C` [DesHDAP1-BF2 (DB)], for which the “MIC against E. coli” value with E. coli was determined as 1.1 µM (≈ 5.42 µg/mL). The “MIC against B. subtilis” value in the assay with B. subtilis worked out at 4.6 µM (≈ 22.7 µg/mL).

Turning to `CC[C@H](C)[C@H](NC(=O)[C@H](CCCNC(=N)N)NC(=O)[C@@H](NC(=O)[C@H](CCCCN)NC(=O)[C@H](CCCCN)NC(=O)[C@H](CC(N)=O)NC(=O)[C@H](CC(=O)O)NC(=O)[C@H](CCCNC(=N)N)NC(=O)[C@H](C)N)[C@@H](C)O)C(=O)N[C@@H](Cc1c[nH]c2ccccc12)C(=O)N1CCC[C@H]1C(=O)N[C@@H](CCCNC(=N)N)C(=O)N[C@@H](Cc1c[nH]cn1)C(=O)N[C@@H](CC(C)C)C(=O)N[C@@H](CCC(N)=O)C(=O)N[C@@H](CC(C)C)C(=O)N[C@@H](C)C(=O)N[C@H](C(=O)N[C@@H](CCCNC(=N)N)C(=O)N[C@@H](CC(N)=O)C(=O)N1CCC[C@H]1C(=O)N[C@H](C(=O)N[C@@H](CCCNC(=N)N)C(=O)N[C@@H](CO)C(=O)N[C@@H](CO)C(=O)N[C@@H](CCCNC(=N)N)C(=O)N[C@@H](C)C(=O)NCC(=O)N[C@@H](CC(C)C)C(=O)N[C@@H](CCC(N)=O)C(=O)N[C@@H](Cc1c[nH]c2ccccc12)C(=O)N1CCC[C@H]1C(=O)N[C@H](C(=O)NCC(=O)N[C@@H](CCCNC(=N)N)C(=O)N[C@H](C(=O)N[C@@H](Cc1c[nH]cn1)C(=O)N[C@@H](CCCNC(=N)N)C(=O)N[C@@H](CC(C)C)C(=O)N[C@@H](CC(C)C)C(=O)N[C@@H](CCCNC(=N)N)C(=O)N[C@@H](CCCCN)C(=O)O)C(C)C)C(C)C)[C@@H](C)O)C(C)C` [DesHDAP1-P-BF2 (DPB)], the “MIC against E. coli” value with E. coli amounted to 1.1 µM (≈ 5.53 µg/mL). Also, the “MIC against B. subtilis” value in the assay with B. subtilis worked out at 4.6 µM (≈ 23.1 µg/mL).

Turning to `CC[C@H](C)[C@H](NC(=O)[C@H](CCCNC(=N)N)NC(=O)[C@@H](NC(=O)[C@H](CCCCN)NC(=O)[C@H](CCCCN)NC(=O)[C@H](CC(N)=O)NC(=O)[C@H](CC(=O)O)NC(=O)[C@H](CCCNC(=N)N)NC(=O)[C@H](C)NC(=O)[C@@H]1CCCN1C(=O)[C@H](CCCCN)NC(=O)[C@H](CCCNC(=N)N)NC(=O)[C@H](CC(C)C)NC(=O)[C@H](CC(C)C)NC(=O)[C@H](CCCNC(=N)N)NC(=O)[C@H](Cc1c[nH]cn1)NC(=O)[C@@H](NC(=O)[C@H](CCCNC(=N)N)NC(=O)CNC(=O)[C@@H](NC(=O)[C@@H]1CCCN1C(=O)[C@H](Cc1c[nH]c2ccccc12)NC(=O)[C@H](CCC(N)=O)NC(=O)[C@H](CC(C)C)NC(=O)CNC(=O)[C@H](C)NC(=O)[C@H](CCCNC(=N)N)NC(=O)[C@H](CO)NC(=O)[C@H](CO)NC(=O)[C@H](CCCNC(=N)N)NC(=O)[C@@H](N)[C@@H](C)O)C(C)C)C(C)C)[C@@H](C)O)C(=O)N[C@@H](Cc1c[nH]c2ccccc12)C(=O)N1CCC[C@H]1C(=O)N[C@@H](CCCNC(=N)N)C(=O)N[C@@H](Cc1c[nH]cn1)C(=O)N[C@@H](CC(C)C)C(=O)N[C@@H](CCC(N)=O)C(=O)N[C@@H](CC(C)C)C(=O)N[C@@H](C)C(=O)N[C@H](C(=O)N[C@@H](CCCNC(=N)N)C(=O)N[C@@H](CC(N)=O)C(=O)O)C(C)C` [BF2-P-DesHDAP1 (BPD)], the “MIC against E. coli” value in the assay with E. coli worked out at 1.1 µM (≈ 5.53 µg/mL). For the same compound, in the assay on B. subtilis, the “MIC against B. subtilis” value worked out at 4.6 µM (≈ 23.1 µg/mL).

For the compound `CC[C@H](C)[C@H](NC(=O)[C@H](CCCNC(=N)N)NC(=O)[C@@H](NC(=O)[C@H](CCCCN)NC(=O)[C@H](CCCCN)NC(=O)[C@H](CC(N)=O)NC(=O)[C@H](CC(=O)O)NC(=O)[C@H](CCCNC(=N)N)NC(=O)[C@H](C)NC(=O)[C@H](C)NC(=O)[C@H](CCCCN)NC(=O)[C@H](CCCNC(=N)N)NC(=O)[C@H](CC(C)C)NC(=O)[C@H](CC(C)C)NC(=O)[C@H](CCCNC(=N)N)NC(=O)[C@H](Cc1c[nH]cn1)NC(=O)[C@@H](NC(=O)[C@H](CCCNC(=N)N)NC(=O)CNC(=O)[C@@H](NC(=O)[C@@H]1CCCN1C(=O)[C@H](Cc1c[nH]c2ccccc12)NC(=O)[C@H](CCC(N)=O)NC(=O)[C@H](CC(C)C)NC(=O)CNC(=O)[C@H](C)NC(=O)[C@H](CCCNC(=N)N)NC(=O)[C@H](CO)NC(=O)[C@H](CO)NC(=O)[C@H](CCCNC(=N)N)NC(=O)[C@@H](N)[C@@H](C)O)C(C)C)C(C)C)[C@@H](C)O)C(=O)N[C@@H](Cc1c[nH]c2ccccc12)C(=O)N1CCC[C@H]1C(=O)N[C@@H](CCCNC(=N)N)C(=O)N[C@@H](Cc1c[nH]cn1)C(=O)N[C@@H](CC(C)C)C(=O)N[C@@H](CCC(N)=O)C(=O)N[C@@H](CC(C)C)C(=O)N[C@@H](C)C(=O)N[C@H](C(=O)N[C@@H](CCCNC(=N)N)C(=O)N[C@@H](CC(N)=O)C(=O)O)C(C)C` [BF2-A-DesHDAP1 (BAD)], the “MIC against E. coli” value in the assay with E. coli came to 1.1 µM (≈ 5.5 µg/mL). In the assay with B. subtilis, the “MIC against B. subtilis” value was determined as 4.6 µM (≈ 23 µg/mL).

Turning to `CC[C@H](C)[C@H](NC(=O)[C@H](CCCNC(=N)N)NC(=O)[C@@H](NC(=O)[C@H](CCCCN)NC(=O)[C@H](CCCCN)NC(=O)[C@H](CC(N)=O)NC(=O)[C@H](CC(=O)O)NC(=O)[C@H](CCCNC(=N)N)NC(=O)[C@H](C)NC(=O)[C@H](CCCCN)NC(=O)[C@H](CCCNC(=N)N)NC(=O)[C@H](CC(C)C)NC(=O)[C@H](CC(C)C)NC(=O)[C@H](CCCNC(=N)N)NC(=O)[C@H](Cc1c[nH]cn1)NC(=O)[C@@H](NC(=O)[C@H](CCCNC(=N)N)NC(=O)CNC(=O)[C@@H](NC(=O)[C@@H]1CCCN1C(=O)[C@H](Cc1c[nH]c2ccccc12)NC(=O)[C@H](CCC(N)=O)NC(=O)[C@H](CC(C)C)NC(=O)CNC(=O)[C@H](C)NC(=O)[C@H](CCCNC(=N)N)NC(=O)[C@H](CO)NC(=O)[C@H](CO)NC(=O)[C@H](CCCNC(=N)N)NC(=O)[C@@H](N)[C@@H](C)O)C(C)C)C(C)C)[C@@H](C)O)C(=O)N[C@@H](Cc1c[nH]c2ccccc12)C(=O)N1CCC[C@H]1C(=O)N[C@@H](CCCNC(=N)N)C(=O)N[C@@H](Cc1c[nH]cn1)C(=O)N[C@@H](CC(C)C)C(=O)N[C@@H](CCC(N)=O)C(=O)N[C@@H](CC(C)C)C(=O)N[C@@H](C)C(=O)N[C@H](C(=O)N[C@@H](CCCNC(=N)N)C(=O)N[C@@H](CC(N)=O)C(=O)O)C(C)C` [BF2-DesHDAP1 (BD)], the “MIC against E. coli” value with E. coli came out at 1.1 µM (≈ 5.42 µg/mL). For the same compound, the “MIC against B. subtilis” value in the assay on B. subtilis stood at 4.6 µM (≈ 22.7 µg/mL).

Regarding `CC(C)C[C@H](NC(=O)CNC(=O)[C@H](C)NC(=O)[C@H](CCCNC(=N)N)NC(=O)[C@H](CO)NC(=O)[C@H](CO)NC(=O)[C@H](CCCNC(=N)N)NC(=O)[C@@H](N)[C@@H](C)O)C(=O)N[C@@H](CCC(N)=O)C(=O)N[C@@H](Cc1c[nH]c2ccccc12)C(=O)N1CCC[C@H]1C(=O)N[C@H](C(=O)NCC(=O)N[C@@H](CCCNC(=N)N)C(=O)N[C@H](C(=O)N[C@@H](Cc1c[nH]cn1)C(=O)N[C@@H](CCCNC(=N)N)C(=O)N[C@@H](CC(C)C)C(=O)N[C@@H](CC(C)C)C(=O)N[C@@H](CCCNC(=N)N)C(=O)N[C@@H](CCCCN)C(=O)O)C(C)C)C(C)C` [Buforin II (BF2), reference compound], the “MIC against E. coli” value in the assay on E. coli is greater than 18.2 µM.
